According to ChEMBL document CHEMBL5050843, “Amide substituted thiazoles as protein secretion inhibitors” (2019):

Legend:
Format in all cases: functional, cell-based
[1] = Inhibition of constitutively active VCAMss-Gluc secretion in human Flp-In-T-REx-293 cells measured by Gaussia luciferase reporter gene method
[2] = Inhibition of TNF-alpha-FL-Gluc secretion in doxycyclin-induced human Flp-In-T-REx-293 cells measured by Gaussia luciferase reporter gene method
[3] = Inhibition of PD1ss-Gluc secretion in doxycyclin-induced human Flp-In-T-REx-293 cells measured by Gaussia luciferase reporter gene method
[4] = Inhibition of PR1ss-Gluc secretion in doxycyclin-induced human Flp-In-T-REx-293 cells measured by Gaussia luciferase reporter gene method
[5] = Inhibition of constitutively active PR1ss-Gluc secretion in human Flp-In-T-REx-293 cells measured by Gaussia luciferase reporter gene method

SMILES | IC50 [1] [µM] | IC50 [2] [µM] | IC50 [3] [µM] | IC50 [4] [µM] | IC50 [5] [µM]
O=C(Nc1nc(C2CC2)cs1)c1cc2c(s1)CCCC2 | 11 | > 80 | – | – | –
CC(C)(C)c1csc(NC(=O)c2cc3c(s2)CCCCC3)n1 | 0.58 | 4.3 | – | – | –
CNC(=O)c1ccc2sc(C(=O)Nc3nc(C(C)(C)C)cs3)cc2c1 | – | – | 8.8 | 7.44 | –
CC(C)(C)c1csc(NC(=O)c2cc3ccc(Br)cc3s2)n1 | 3.3 | > 80 | – | – | –
CC(C)(C)c1csc(NC(=O)c2ccc(Br)s2)n1 | 23 | > 80 | – | – | –
Cc1cc(C(=O)Nc2nc(C(C)(C)C)cs2)cn1Cc1ccccc1 | – | > 25 | 4.74 | > 25 | –
CN[C@@H](Cc1cn(Cc2ccc(F)cc2)c2ccccc12)C(=O)Nc1nc(C(C)(C)C)cs1 | – | – | > 25 | > 25 | –
CC(C)(C)c1csc(NC(=O)c2csc3c2CCCC3)n1 | 14 | 73 | – | – | –
CC(C)(C)c1nc(NC(=O)c2cc3c(s2)CCCC3)sc1C#N | > 80 | > 80 | – | – | –
CC(C)(C)c1csc(NC(=O)c2cn(Cc3ccccc3)c3ccccc23)n1 | – | – | 7.05 | > 25 | –
COc1ccc2c(c1)c(CC(=O)Nc1nc(C(C)(C)C)cs1)cn2Cc1ccccc1 | – | – | 3.41 | > 25 | –
CC(C)c1csc(NC(=O)c2cc3c(s2)CCCC3)n1 | 1.2 | > 80 | – | – | –
CC(C)(C)c1csc(NC(=O)c2ccc(Cl)s2)n1 | 2 | 8 | – | – | –
CC(C)(C)c1csc(NC(=O)c2ccc(-c3ccc(Cl)cc3Cl)s2)n1 | 2.27 | 4.31 | – | – | –
CC(=O)N1CCc2sc(C(=O)Nc3nc(C(C)(C)C)cs3)cc2C1 | > 50 | > 50 | – | – | –
CC(C)(C)c1csc(NC(=O)Cc2cn(Cc3ccccc3C(N)=O)c3ccc(Cl)cc23)n1 | – | – | > 25 | > 25 | –
CC(C)(C)c1csc(NC(=O)Cc2cn(Cc3ccccc3)c3ccc(C#N)cc23)n1 | – | – | 6.06 | > 25 | –
CC(C)(C)c1csc(NC(=O)Cc2cn(-c3cccc(Cl)c3)c3ccc(Cl)cc23)n1 | – | – | 4.14 | > 25 | –
CC(C)(C)c1csc(NC(=O)Cc2cn(Cc3ccccc3)c3ccc(Br)cc23)n1 | – | – | 6.13 | > 25 | –
CC(C)(C)c1csc(NC(=O)c2cc3c([nH]2)CCCC3)n1 | 2.5 | > 80 | – | – | –
CC(C)(C)c1csc(NC(=O)c2ccc(-c3ccccc3)s2)n1 | 1.3 | 4.5 | – | – | –
CC(C)(C)c1csc(NC(=O)c2cc3c(s2)CCC3)n1 | 1 | 18 | – | – | –

SMILES | IC50 [1] [µM] | IC50 [2] [µM] | IC50 [3] [µM] | IC50 [4] [µM] | IC50 [5] [µM]
CC(C)(C)c1csc(NC(=O)Cc2cn(CCc3ccccc3)c3ccc(Cl)cc23)n1 | – | – | 4.15 | > 25 | –
CC(C)(C)Cc1csc(NC(=O)Cc2csc3ccc(Cl)cc23)n1 | 2480 | – | 6.99 | > 25 | > 25
CC(C)(C)c1csc(NC(=O)Cc2cn(Cc3ccccc3S(C)(=O)=O)c3ccc(Cl)cc23)n1 | – | – | 13.2 | > 25 | –
CC(C)Cn1cc(CC(=O)Nc2nc(C(C)(C)C)cs2)c2cc(Cl)ccc21 | – | – | 5.38 | > 25 | –
CC1(C)CCc2sc(NC(=O)c3cc4c(s3)CCCC4)nc21 | 0.4 | > 80 | – | – | –
Cc1cc(C(=O)Nc2nc(C(C)(C)C)cs2)sc1-c1ccccc1 | 4.5 | 31 | – | – | –
CC(C)(C)c1csc(NC(=O)Cc2cn(Cc3cocn3)c3ccc(Cl)cc23)n1 | – | > 25 | 22 | – | –
CC(C)(C)c1csc(NC(=O)Cc2cn(Cc3ccon3)c3ccc(Cl)cc23)n1 | – | > 25 | 10.3 | – | –
CC(C)(C)c1csc(NC(=O)Cc2cn(Cc3ccccc3)c3ccc(C(N)=O)cc23)n1 | – | – | > 25 | > 25 | –
CC(C)(C)c1csc(NC(=O)Cc2cn(Cc3ccccc3C#N)c3ccc(Cl)cc23)n1 | – | – | 3.65 | > 25 | –
CC(C)(C)c1csc(NC(=O)Cc2cn(-c3ccccc3Cl)c3ccc(Cl)cc23)n1 | – | – | 4.4 | > 25 | –
Cc1csc(C(=O)Nc2nc(C(C)(C)C)cs2)c1 | 17.1 | – | – | – | > 25
CC(C)(C)c1nsc(NC(=O)c2cc3c(s2)CCCC3)n1 | 0.43 | 4.7 | – | – | –
CC(C)(C)c1csc(NC(=O)c2cc3cc(-c4ccccc4)ccc3s2)n1 | 11 | – | – | – | > 25
CC(C)(C)c1csc(NC(=O)C2=CCCC2)n1 | > 25 | – | – | – | > 25
COc1ccc2cc(C(=O)Nc3nc(C(C)(C)C)cs3)sc2c1 | 1.8 | > 80 | – | – | –
CC(C)c1cccc(C(=O)Nc2nc(C(C)(C)C)cs2)c1 | > 25 | – | – | – | > 25
CC(C)(C)c1csc(NC(=O)Cc2cn(Cc3ccccn3)c3ccc(Cl)cc23)n1 | 2.08 | – | – | – | > 25
CC(C)(C)c1csc(NC(=O)c2ncn[nH]2)n1 | > 25 | – | – | – | > 25
Cn1c(C(=O)Nc2nc(C(C)(C)C)cs2)cc2ccccc21 | 2.21 | – | – | – | > 25
Cc1cc(C(=O)Nc2nc(C(C)(C)C)cs2)sc1C | 9.08 | – | – | – | > 25
CC(C)(C)c1csc(NC(=O)Cc2ccc(Cl)c(Cl)c2)n1 | 2.64 | – | – | – | > 25

SMILES | IC50 [1] [µM] | IC50 [2] [µM] | IC50 [3] [µM] | IC50 [4] [µM] | IC50 [5] [µM]
CC(C)(C)c1csc(NC(=O)c2ccc3c(c2)OCCN3)n1 | > 25 | – | – | – | > 25
CC(c1ccccc1)n1cc(CC(=O)Nc2nc(C(C)(C)C)cs2)c2cc(Cl)ccc21 (configuration not stated) | 0.217 | – | 2.66 | > 25 | > 25
CC#Cc1ccc2sc(C(=O)Nc3nc(C(C)(C)C)cs3)cc2c1 | 4.97 | – | – | – | > 25
CC(C)(C)c1csc(NC(=O)c2cc(Br)cs2)n1 | 14 | 72 | – | – | –
CC(C)(C)c1csc(NC(=O)c2cc3c(Cl)cccc3s2)n1 | 5.7 | – | – | – | > 25
Cn1cc(CC(=O)Nc2nc(C(C)(C)C)cs2)c2ccccc21 | 4.51 | – | – | – | > 25
CC(C)(C)c1csc(NC(=O)c2cccnn2)n1 | > 25 | – | – | – | > 25
CC(C)(C)c1csc(NC(=O)Cc2cn(-c3ccccn3)c3ccc(Cl)cc23)n1 | – | – | 8.72 | > 25 | –
CC(C)(C)c1csc(NC(=O)Cc2ccc3ccccc3c2)n1 | 15 | – | – | – | > 25
CC(C)(C)c1csc(NC(=O)C2CCCC2)n1 | 17 | – | – | – | > 25
Cc1cc(C(=O)Nc2nc(C3CC3)cs2)cs1 | > 25 | – | – | – | > 25
COC(=O)c1sc(NC(=O)c2cc3c(s2)CCCC3)nc1C(C)(C)C | 3.9 | > 80 | – | – | –
CC(C)(C)c1csc(NC(=O)c2cccc(C(F)(F)F)c2)n1 | 7.6 | – | – | – | > 80
CC(C)(C)c1csc(NC(=O)Cn2ccc3ccccc32)n1 | 8.75 | – | – | – | > 25
CC(C)(C)c1csc(NC(=O)Cc2cn(C3CCCC3)c3ccc(Cl)cc23)n1 | – | – | 6.52 | > 25 | –
CC(C)(C)c1csc(NC(=O)Cc2ccc3cn[nH]c3c2)n1 | > 25 | – | – | – | > 25
CC(C)(C)c1csc(NC(=O)C2Cc3ccccc3C2)n1 | 11.2 | – | – | – | > 25
CCC(C)n1cc(CC(=O)Nc2nc(C(C)(C)C)cs2)c2cc(Cl)ccc21 (configuration not stated) | – | – | 4.38 | > 25 | –
CC(C)(C)c1csc(NC(=O)Cc2cccc3ccccc23)n1 | 3.45 | – | – | – | > 25
Cc1cccc2scc(CC(=O)Nc3nc(C(C)(C)C)cs3)c12 | 3.2 | – | – | – | > 25
CC(C)(C)c1csc(NC(=O)[C@@H]2CCCO2)n1 | > 25 | – | – | – | > 25
CC(C)(C)c1csc(NC(=O)Cc2cccnc2)n1 | > 25 | – | – | – | > 25

SMILES | IC50 [1] [µM] | IC50 [2] [µM] | IC50 [3] [µM] | IC50 [4] [µM] | IC50 [5] [µM]
CC1(c2csc(NC(=O)Cc3cn(Cc4ccccc4)c4ccc(Cl)cc34)n2)CC1 | 0.908 | – | – | – | > 25
CC(C)(C)c1csc(NC(=O)Cc2cn(C(=O)c3ccccc3)c3ccc(Cl)cc23)n1 | 2.05 | – | – | – | > 25
CC(C)(C)c1csc(NC(=O)C2(c3cccc(Cl)c3)CCCC2)n1 | 8.15 | – | – | – | > 25
CC(C)(C)c1csc(NC(=O)c2cc3ccccc3n2Cc2ccccc2)n1 | – | – | 8.29 | > 25 | –
CC(C)(C)c1csc(NC(=O)CC2CCCCC2)n1 | 6.09 | – | – | – | > 25
CCC1CCc2sc(C(=O)Nc3nc(C(C)(C)C)cs3)cc2C1 (configuration not stated) | 7.9 | > 80 | – | – | –
CC(C)(C)c1csc(NC(=O)c2cc(Br)c(Br)s2)n1 | 3.8 | 26 | – | – | –
CC(=O)N(C)[C@@H](Cc1cn(Cc2ccc(F)cc2)c2ccccc12)C(=O)Nc1nc(C(C)(C)C)cs1 | – | – | > 25 | > 25 | –
CC(C)(C)c1csc(NC(=O)CN2CCOCC2)n1 | > 25 | – | – | – | > 25
CC(C)(C)c1csc(NC(=O)c2ccccc2)n1 | 10.4 | – | – | – | > 80
COc1cccc(C(=O)Nc2nc(C(C)(C)C)cs2)c1 | > 25 | – | – | – | > 25
CCOC(=O)CC(C)(C)c1csc(NC(=O)Cc2cc(Cl)cc(Cl)c2)n1 | 8.93 | – | – | – | > 25
CC(C)(C)OC(=O)N1CCc2sc(C(=O)Nc3nc(C(C)(C)C)cs3)cc2C1 | 20 | > 50 | – | – | –
CC(C)(C)c1csc(NC(=O)Cc2cc3ccccc3s2)n1 | > 25 | – | – | – | > 25
CC(C)(C)c1csc(NC(=O)Cc2cn(-c3ccc(Cl)cc3)c3ccc(Cl)cc23)n1 | – | – | 2.69 | > 25 | –
CC(C)n1cc(CC(=O)Nc2nc(C(C)(C)C)cs2)c2cc(Cl)ccc21 | 0.587 | – | 4.4 | > 25 | > 25
CCCc1csc(NC(=O)c2cc3c(s2)CCCC3)n1 | 2.6 | > 80 | – | – | –
CC(C)(C)c1csc(NC(=O)Cc2csc3ccccc23)n1 | 1.76 | – | – | – | > 25
CC(C)(C)c1csc(NC(=O)Cc2cccs2)n1 | 5.7 | – | – | – | > 80
